# From patent US8080252B2, “Compounds and methods of modulating angiogenesis” (The Cleveland Clinic Foundation, priority 2006, dated 2011)
# Like-named read-outs stand apart in the source and are kept apart here. Non-standard residues stand in square brackets, D forms with d. No end group written: not given here. pY = N[C@@H](Cc1ccc(OP(=O)(O)O)cc1)C(=O)O
# Legend:
# αvβ3 integrin [1] = test: Fibrinogen binding assay, WT and DiYF mouse lung endothelial cells (FACS); type: cell-based; conditions: 20 ng/ml VEGF or 1 mM MnCl2
# Method: To assess fibrinogen binding, semiconfluent wild type and DiYF mouse lung endothelial cells were serum starved for 4 h and further induced with 20 ng/ml VEGF-165, 20 ng/ml b-FGF or 1 mm MnCl2. Fluorescein isothiocyanate (FITC)-labeled fibrinogen was added at a final concentration of 200 nM for 45 min. […] Fluorescence-activated cell sorting (FACS) was performed using a FACS Calibur (Becton Dickinson, San Jose, Calif.) and data were analyzed using CellQuest software program.
# αvβ3 integrin [2] = test: WOW-1 binding assay, WT and DiYF mouse lung endothelial cells (FACS); type: cell-based; conditions: 20 ng/ml VEGF or 1 mM MnCl2
# Method: Wild type and DiYF mouse lung endothelial cells were serum starved for 4 h and further stimulated with 20 ng/ml VEGF-165, 20 ng/ml b-FGF or 1 mm MnCl2 separately. WoW-1 Fab was added at a final concentration of […], followed by addition of Fluorescein isothiocyanate (FITC) conjugated goat anti-mouse IgG at 10 μg/ml. After 30 min cells were fixed with 3.7% formaldehyde/PBS for 15 min, washed twice with 1×PBS and FACS was performed using a FACS Calibur (Becton Dickinson, San Jose, Calif.) instrument and data were analyzed using CellQuest software program.
# β3 integrin = β3 integrin tyrosine phosphorylation (Tyr-747 and 759) in HUVECs, Western blot; type: cell-based, Human; conditions: serum starved HUVECs, 400 nm and 800 nm SU1498
# Method: αvβ3 integrin is expressed on proliferating endothelial cells during angiogenesis and vascular remodeling and the blockade of αvβ3 integrin suppressed angiogenesis in several in vivo models. Therefore, we assessed whether the blockade of αvβ3 affected tyrosine phosphorylation of β3 subunit. […] Cells were also treated with non-immune IgG as control. These cells were washed and further induced with VEGF for 5 min at 37° C. Cell lysates were analyzed for phosphorylation of β3 integrin (Tyr-747 and 759). […] Basal level of β3 integrin tyrosine phosphorylation remains unaffected irrespective of different blocking antibody treatment. To further examine consequences of αvβ3 integrin blocking antibodies, cell lysates were analyzed for tyrosine phosphorylation of VEGFR-2 (Tyr-1175).
# Cytoplasmic domains of integrin β subunits are highly conserved and represents region of structural homology between the various groups. […] Cell lysates were analyzed for the phosphorylation of β3 integrin. […]
# Cells were lysed in immunoprecipitation lysis buffer (1% Noniodet P-40, 150 mM NaCl, 50 mM Tris-HCL (pH 7.8), 2 mM EDTA, 10 mM NaF, 10 mM Na2P2O7, 2 mM Na3VO4 10 μg/mL leupeptin, 4 μg/mL pepstatin and 0.1 U/mL aprotinin). […] Bands were analyzed by densitomeric analysis using Kodak 1D software and fold changes were indicated.
# HUVECs = test: Cell migration assay of HUVECs on vitronectin, VEGF as agonist (Example 5); type: cell-based, Human; conditions: vitronectin as substrate
# Method: (§1) To assess the role of Src-mediated β3 integrin tyrosine phosphorylation in αvβ3 integrin dependent EC migration, HUVECs transfected with various forms of Src were evaluated in migration assays using VEGF as an agonist and vitronectin as a substrate. […] To further evaluate the c-Src mediated β3 integrin cytoplasmic tyrosine motifs phosphorylation in αvβ3 integrin dependent endothelial cell migration, wild type and DiYF mouse lung microvascular endothelial cells were transfected with wild type, dominant negative and catalytically active form of c-Src and stimulated with VEGF (FIG. 23 B).
# (§2) Transwell tissue culture inserts were coated with αvβ3 integrin ligand vitronectin for 24 h at 4° C. Endothelial cells were transfected with various forms of c-Src or treated with inhibitors and were trypsinized; then 1×10^5 cells were added into each well. Cells were allowed to migrate for 12 h and fixed with 70% methanol for 15 min and stained with Giemsa. The non-migrated cells adhered to the top surface were removed and three random 10× fields were photographed using an inverted phase contrast microscopy.
# [3] = tested on: cells expressing αvβ3 integrin and VEGFR2; test: Angiogenesis of cells expressing αvβ3 integrin and VEGFR2 with stimulating peptides; type: cell-based; conditions: both in the presence and the absence of VEGF
# [4] = tested on: HUVECs (Human Umbilical vascular endothelial cells); conditions: HUVECs on Matrigel, 8 h
# Text: The tube formation was observed using an inverted phase contrast microscope (Leica) and photographs were taken from each well. Using ImagePro software, the degree of tube formation was quantified by measuring the length of tubes in random fields.
# αvβ3 integrin [5] = target: T1, αvβ3 integrin (Homo sapiens, UniProt P05106+P06756); test: WOW-1 binding assay in HUVECs (αvβ3 integrin activation, FACS); type: cell-based; conditions: 20 ng/mL
# T1 construct: Semiconfluent HUVECs were serum starved for 4 h and further stimulated with 20 ng/mL VEGF-A165 or VEGFDΔNΔC; endogenous in cells; host or cells: HUVEC
# Method: Semiconfluent HUVECs were serum starved for 4 h and further stimulated with 20 ng/mL VEGF-A165 or VEGFDΔNΔC. WOW-1 Fab was added to a final concentration of 30 μg/mL, followed by addition of FITC-conjugated goat anti-mouse IgG at 10 μg/mL. After 30 min cells were fixed with 3.7% formaldehyde in PBS for 15 min, washed twice with PBS, and fluorescence-activated cell sorting (FACS) was performed using a FACS Calibur (Becton Dickinson, San Jose, Calif.) and data were analyzed using CellQuest software.
# Semiconfluent HUVECs were transfected with various forms of c-Src or Src++. SYF, SYF+Src cells were serum starved for 4 h and further stimulated with 20 ng/mL VEGF-A165 or b-FGF. WOW-1 Fab was added at a final concentration of 30 μg/mL, followed by addition of FITC-conjugated goat anti-mouse IgG at 10 μg/mL. After 30 min cells were fixed with 3.7% formaldehyde/PBS for 15 min, washed twice with PBS, and FACS analysis was performed as described above.
# [6] = tested on: mouse lung endothelial cells; conditions: 20 ng/ml VEGF, 8 h
# Method: The formation of vascular tube-like structures by wild type and DiYF mouse lung endothelial cells were assessed on the basement membrane matrix preparation. Six well plates were coated with 0.5 ml of Matrigel according to the manufacturer's instructions. Wild type and DiYF mouse lung endothelial cells were detached from the tissue culture flasks using 20 mM EDTA. Cells were washed twice with sterile 1×PBS and seeded on Matrigel coated plate. Medium was supplemented with or without 20 ng/ml VEGF and further incubated at 37° C. for 8 h. The tube formation was observed using an inverted phase contrast microscope (Leica) and photographs were taken from each well. Using ImagePro software, the degree of tube formation was quantified by measuring the length of tubes in random fields.
# [7] = tested on: mouse lung endothelial cells; conditions: WT EC
# Method: Transwell tissue culture inserts were coated with various integrin ligands for 24 h at 4° C. Both WT and DiYF lung endothelial cells were trypsinized and 1×10^5 cells were added into each well. The lower chamber contained varying concentrations of VEGF-A165 (0-20 ng/ml). Cells were allowed to migrate for 12 h and fixed with 3.7% formaldehyde/PBS for 15 min and stained with 0.5% crystal violet. The non-migrated cells adhered to the top surface were removed and three random 10× fields were photographed using Leica inverted phase contrast microscope.
# VEGFR-2 = target: T2, VEGFR-2 (Mus musculus, UniProt P35918); test: VEGFR-2 phosphorylation time course in WT and DiYF mouse endothelial cells; type: cell-based; conditions: 20 ng/ml VEGF
# T2 construct: Serum starved wild type and DiYF endothelial cells were also treated with 20 ng/ml VEGF for 0-60 mins; endogenous in cells; host or cells: primary mouse lung endothelial cells (WT and DiYF knock-in, C57/Bl6)
# Method: Serum starved wild type and DiYF endothelial cells were also treated with 20 ng/ml VEGF for 0-60 mins. Cell lysates were analyzed by Western blot using anti-integrin β3 [pY^747], anti-integrin [pY^759], anti-p-VEGFR-2, anti-VEGFR-2, anti-p-ERK1/2, anti-ERK1/2, anti-p-Akt, anti-Akt, anti-p-P38MAPK and anti-MAPK antibody. The wild type and DiYF endothelial cells were lysed and equal proteins from total cell lysates were subjected SDS-PAGS and analyzed by western blot using anti-VEGFR-2 and anti-CD-31 antibody.
# [8] = tested on: mouse lung microvascular endothelial cells
# Method: as §1, §2
# T2 sequence (P35918 20-1345): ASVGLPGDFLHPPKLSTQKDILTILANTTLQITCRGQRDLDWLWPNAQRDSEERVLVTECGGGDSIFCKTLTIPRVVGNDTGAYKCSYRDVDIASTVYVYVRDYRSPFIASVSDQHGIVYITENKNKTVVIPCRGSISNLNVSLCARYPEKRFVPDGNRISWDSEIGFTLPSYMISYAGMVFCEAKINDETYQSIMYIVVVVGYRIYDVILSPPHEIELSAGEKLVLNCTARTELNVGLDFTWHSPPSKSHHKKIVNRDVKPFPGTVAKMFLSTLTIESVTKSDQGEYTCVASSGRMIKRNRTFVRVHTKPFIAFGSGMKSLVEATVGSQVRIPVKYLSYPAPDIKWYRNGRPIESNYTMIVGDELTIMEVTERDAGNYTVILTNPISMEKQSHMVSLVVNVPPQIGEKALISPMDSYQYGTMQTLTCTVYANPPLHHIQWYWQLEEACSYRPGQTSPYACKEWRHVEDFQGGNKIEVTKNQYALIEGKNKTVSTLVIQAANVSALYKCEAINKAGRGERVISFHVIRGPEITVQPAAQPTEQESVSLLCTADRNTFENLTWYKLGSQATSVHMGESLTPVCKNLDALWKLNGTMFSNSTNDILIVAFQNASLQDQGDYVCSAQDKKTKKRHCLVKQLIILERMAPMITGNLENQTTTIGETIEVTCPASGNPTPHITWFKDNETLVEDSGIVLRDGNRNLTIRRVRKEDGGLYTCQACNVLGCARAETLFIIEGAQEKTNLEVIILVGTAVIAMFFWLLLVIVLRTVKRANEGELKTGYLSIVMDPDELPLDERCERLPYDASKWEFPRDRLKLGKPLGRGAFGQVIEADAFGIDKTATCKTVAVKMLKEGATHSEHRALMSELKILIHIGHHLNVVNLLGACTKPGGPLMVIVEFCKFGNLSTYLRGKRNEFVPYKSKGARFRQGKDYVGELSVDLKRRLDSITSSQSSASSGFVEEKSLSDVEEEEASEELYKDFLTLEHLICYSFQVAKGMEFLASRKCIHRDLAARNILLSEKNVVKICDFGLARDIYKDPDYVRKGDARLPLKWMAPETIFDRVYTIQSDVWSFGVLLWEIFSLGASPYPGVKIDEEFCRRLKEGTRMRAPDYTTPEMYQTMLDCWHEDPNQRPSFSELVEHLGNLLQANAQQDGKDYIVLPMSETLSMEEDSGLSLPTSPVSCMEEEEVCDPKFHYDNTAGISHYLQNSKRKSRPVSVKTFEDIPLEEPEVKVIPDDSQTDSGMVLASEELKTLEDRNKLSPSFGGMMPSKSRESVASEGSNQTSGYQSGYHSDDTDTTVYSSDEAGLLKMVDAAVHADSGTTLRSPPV
# T1 sequence (P06756 31-1048): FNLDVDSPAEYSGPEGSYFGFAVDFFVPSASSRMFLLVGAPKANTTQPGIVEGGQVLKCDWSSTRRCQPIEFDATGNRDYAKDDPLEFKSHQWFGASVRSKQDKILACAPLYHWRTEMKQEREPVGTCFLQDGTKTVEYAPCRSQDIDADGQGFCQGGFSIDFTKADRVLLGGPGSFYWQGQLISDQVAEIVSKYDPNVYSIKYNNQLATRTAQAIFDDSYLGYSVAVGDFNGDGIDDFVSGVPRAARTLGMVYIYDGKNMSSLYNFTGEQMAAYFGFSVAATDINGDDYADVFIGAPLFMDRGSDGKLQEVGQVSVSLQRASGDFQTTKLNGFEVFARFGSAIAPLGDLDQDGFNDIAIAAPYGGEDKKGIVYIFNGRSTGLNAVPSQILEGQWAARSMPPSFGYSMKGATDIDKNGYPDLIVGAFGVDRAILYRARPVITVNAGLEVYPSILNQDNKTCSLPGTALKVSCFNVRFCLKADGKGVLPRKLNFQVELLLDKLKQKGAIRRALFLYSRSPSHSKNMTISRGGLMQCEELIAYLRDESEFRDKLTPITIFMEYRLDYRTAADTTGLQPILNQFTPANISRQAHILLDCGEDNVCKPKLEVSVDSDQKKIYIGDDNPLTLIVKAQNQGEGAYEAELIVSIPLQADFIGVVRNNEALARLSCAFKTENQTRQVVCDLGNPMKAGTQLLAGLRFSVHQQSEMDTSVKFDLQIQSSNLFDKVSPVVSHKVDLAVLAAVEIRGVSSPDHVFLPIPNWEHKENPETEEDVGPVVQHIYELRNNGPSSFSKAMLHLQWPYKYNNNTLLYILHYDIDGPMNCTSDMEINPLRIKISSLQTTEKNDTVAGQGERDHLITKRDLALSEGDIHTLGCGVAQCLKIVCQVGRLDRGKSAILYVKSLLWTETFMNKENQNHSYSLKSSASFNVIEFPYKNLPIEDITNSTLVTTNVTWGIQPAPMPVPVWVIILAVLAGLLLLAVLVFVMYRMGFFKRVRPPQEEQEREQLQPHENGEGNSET
# T1 sequence (P05106 27-788): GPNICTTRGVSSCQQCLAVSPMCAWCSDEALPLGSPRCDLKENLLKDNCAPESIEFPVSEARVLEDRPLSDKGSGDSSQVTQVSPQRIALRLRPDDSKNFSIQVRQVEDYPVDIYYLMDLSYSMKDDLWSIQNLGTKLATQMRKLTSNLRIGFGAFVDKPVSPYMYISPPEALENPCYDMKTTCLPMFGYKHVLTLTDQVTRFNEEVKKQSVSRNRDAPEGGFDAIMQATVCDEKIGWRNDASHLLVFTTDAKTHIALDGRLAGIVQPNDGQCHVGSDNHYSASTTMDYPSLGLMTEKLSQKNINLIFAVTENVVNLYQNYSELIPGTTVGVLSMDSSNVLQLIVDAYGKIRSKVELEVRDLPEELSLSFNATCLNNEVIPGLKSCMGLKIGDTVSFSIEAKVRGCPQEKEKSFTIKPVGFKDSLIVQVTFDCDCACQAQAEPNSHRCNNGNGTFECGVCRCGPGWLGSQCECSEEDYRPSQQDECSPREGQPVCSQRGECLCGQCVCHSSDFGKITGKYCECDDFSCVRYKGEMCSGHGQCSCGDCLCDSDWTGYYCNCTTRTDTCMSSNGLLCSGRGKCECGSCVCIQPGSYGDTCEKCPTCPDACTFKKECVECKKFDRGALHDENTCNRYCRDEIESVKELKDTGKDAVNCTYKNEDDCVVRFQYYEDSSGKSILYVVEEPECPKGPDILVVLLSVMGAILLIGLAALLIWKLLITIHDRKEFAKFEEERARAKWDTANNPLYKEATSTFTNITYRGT
compound,measurement,setting,value
"[Cl][Mn][Cl] [MnCl2, reference compound]",increase of fibrinogen binding,αvβ3 integrin [1]; DiYF EC,17 fold
same,increase of fibrinogen binding,αvβ3 integrin [1]; WT EC,at least 40 fold
same,increase in WOW-1 binding,αvβ3 integrin [2]; DiYF EC,14 fold
same,increase in WOW-1 binding,αvβ3 integrin [2]; WT EC,30 fold
CC(C)c1cc(/C=C(\C#N)C(=O)NCCCc2ccccc2)cc(C(C)C)c1O [SU1498],effect on VEGF induced β3 integrin cytoplasmic tyrosine residue phosphorylation,β3 integrin,significantly reduced
same,effect on EC migration triggered by VEGF,HUVECs,reduced EC migration triggered by VEGF
"KEATSTFTNITYpRGT-COOH (KEATSTFTNIT[pY]RGT-OH; N-terminus assumed; SMILES CC[C@H](C)[C@H](NC(=O)[C@H](CC(N)=O)NC(=O)[C@@H](NC(=O)[C@H](Cc1ccccc1)NC(=O)[C@@H](NC(=O)[C@H](CO)NC(=O)[C@@H](NC(=O)[C@H](C)NC(=O)[C@H](CCC(=O)O)NC(=O)[C@@H](N)CCCCN)[C@@H](C)O)[C@@H](C)O)[C@@H](C)O)C(=O)N[C@H](C(=O)N[C@@H](Cc1ccc(OP(=O)(O)O)cc1)C(=O)N[C@@H](CCCNC(=N)N)C(=O)NCC(=O)N[C@H](C(=O)O)[C@@H](C)O)[C@@H](C)O; listed as Homo sapiens) [SEQ ID NO: 15, stimulating peptide; β3 integrin cytoplasmic peptide specific for tyrosine-759]",effect on angiogenesis,[3],promote angiogenesis
VEGF,endothelial cell tube formation induced,[4],at least 450 μm/mm^2
same,increase of WOW-1 binding to EC compared to resting cells,αvβ3 integrin [5],6 fold
same,effect on the length of the tubes,[6]; DiYF EC,little effect
same,increase in the length of the tubes,[6]; WT EC,about 3 fold
same,increase of migration compared to untreated EC,[7]; VEGF 5 ng/ml,1.5 fold
same,increase of migration compared to untreated EC,[7]; VEGF 10 ng/ml,2.5 fold
same,increase of migration compared to untreated EC,[7]; VEGF 20 ng/ml,2.9 fold
same,maximum increase in VEGFR-2 phosphorylation over control,VEGFR-2; DiYF EC,2.5 fold
same,maximum increase in VEGFR-2 phosphorylation over control,VEGFR-2; WT EC,6 fold
same,increase of fibrinogen binding,αvβ3 integrin [1]; DiYF EC,3 fold
same,increase of fibrinogen binding,αvβ3 integrin [1]; WT EC,at least 6 fold
same,increase in WOW-1 binding,αvβ3 integrin [2]; DiYF EC,3.5 fold
same,increase in WOW-1 binding,αvβ3 integrin [2]; WT EC,9 fold
same,increase in endothelial cell migration,[8]; CA-Src transfected wild type endothelial cells,3.5 fold
same,increase in endothelial cell migration,[8]; WT-Src transfected wild type endothelial cells,2.5 fold
"YGRKKRRQRRRGKEATSTFTNITYpRGT-COOH (YGRKKRRQRRRGKEATSTFTNIT[pY]RGT-OH; N-terminus assumed; SMILES CC[C@H](C)[C@H](NC(=O)[C@H](CC(N)=O)NC(=O)[C@@H](NC(=O)[C@H](Cc1ccccc1)NC(=O)[C@@H](NC(=O)[C@H](CO)NC(=O)[C@@H](NC(=O)[C@H](C)NC(=O)[C@H](CCC(=O)O)NC(=O)[C@H](CCCCN)NC(=O)CNC(=O)[C@H](CCCNC(=N)N)NC(=O)[C@H](CCCNC(=N)N)NC(=O)[C@H](CCCNC(=N)N)NC(=O)[C@H](CCC(N)=O)NC(=O)[C@H](CCCNC(=N)N)NC(=O)[C@H](CCCNC(=N)N)NC(=O)[C@H](CCCCN)NC(=O)[C@H](CCCCN)NC(=O)[C@H](CCCNC(=N)N)NC(=O)CNC(=O)[C@@H](N)Cc1ccc(O)cc1)[C@@H](C)O)[C@@H](C)O)[C@@H](C)O)C(=O)N[C@H](C(=O)N[C@@H](Cc1ccc(OP(=O)(O)O)cc1)C(=O)N[C@@H](CCCNC(=N)N)C(=O)NCC(=O)N[C@H](C(=O)O)[C@@H](C)O)[C@@H](C)O; listed as Homo sapiens) [SEQ ID NO: 13, stimulating peptide]",effect on angiogenesis,[3],promote angiogenesis
